Measured values taken from PubChem BioAssay AID256 (DTP/NCI, 2004).
Several values for one entry are separate records, joined by “and”; a condition that tells them apart may be missing. Identical values can stand only once. Inconclusive results and toxic doses are left out.

System: CD2F1 mice, L1210 leukemia ip, survival T/C
Assay: NCI In Vivo Anticancer Drug Screen. Data for tumor model L1210 Leukemia (intraperitoneal) in CD2F1 (CDF1) mice
Conditions: higher = longer survival
In short: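 Vehicle-treated tumor-bearing mice served as controls (C) for compound-treated mice (T). Reported figure is T divided by C.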

[1] = endpoint: mean survival time, dose: 100.0 mg/kg/injection, schedule: Q01DX009 (ip), vehicle: saline with Tween-80
[2] = endpoint: mean survival time, dose: 200.0 mg/kg/injection, schedule: Q01DX009 (ip), vehicle: saline with Tween-80
[3] = endpoint: mean survival time, dose: 400.0 mg/kg/injection, schedule: Q01DX009 (ip), vehicle: saline with Tween-80
[4] = endpoint: mean survival time, dose: 100.0 mg/kg/injection, schedule: Q04DX003 (ip), vehicle: saline with Tween-80
[5] = endpoint: mean survival time, dose: 200.0 mg/kg/injection, schedule: Q04DX003 (ip), vehicle: saline with Tween-80
[6] = endpoint: mean survival time, dose: 400.0 mg/kg/injection, schedule: Q04DX003 (ip), vehicle: saline with Tween-80
[7] = endpoint: mean survival time, dose: 100.0 mg/kg/injection, schedule: Q01DX001 (ip), vehicle: saline with Tween-80
[8] = endpoint: mean survival time, dose: 200.0 mg/kg/injection, schedule: Q01DX001 (ip), vehicle: saline with Tween-80
[9] = endpoint: mean survival time, dose: 400.0 mg/kg/injection, schedule: Q01DX001 (ip), vehicle: saline with Tween-80
[10] = endpoint: mean survival time, dose: 10.0 mg/kg/injection, schedule: Q04DX003 (ip), vehicle: saline with Tween-80
[11] = endpoint: mean survival time, dose: 6.25 mg/kg/injection, schedule: Q01DX009 (ip), vehicle: saline with Tween-80
[12] = endpoint: mean survival time, dose: 12.5 mg/kg/injection, schedule: Q01DX009 (ip), vehicle: saline with Tween-80

## CCCCCCCC/C=C/CCCCCCCC(=O)NCCCCCCNC(=O)CCCCCCC/C=C/CCCCCCCC
endpoint: mean survival time, dose: 100.0 mg/kg/injection, schedule: Q01DX001 (ip), vehicle: other
  T/C: 94 % of control
endpoint: mean survival time, dose: 200.0 mg/kg/injection, schedule: Q01DX001 (ip), vehicle: other
  T/C: 97 % of control
endpoint: mean survival time, dose: 400.0 mg/kg/injection, schedule: Q01DX001 (ip), vehicle: other
  T/C: 102 % of control

## O=[N+]([O-])c1cccc(S(=O)(=O)Oc2ccc(-c3ccccc3)cc2)c1
[1]
  T/C: 87 % of control
[2]
  T/C: 91 % of control
[3]
  T/C: 89 % of control

## CCOC(=O)C1=C(C)NC(C)=C(C(=O)OCC)C1C
endpoint: mean survival time, dose: 50.0 mg/kg/injection, schedule: Q04DX003 (ip), vehicle: saline with Tween-80
  T/C: 98 % of control and 100 % of control
[4]
  T/C: 101 % of control and 103 % of control and 108 % of control
[5]
  T/C: 95 % of control and 98 % of control and 104 % of control
[6]
  T/C: 122 % of control

## Cc1c(Cl)cccc1NC(=O)CCl
[4]
  T/C: 100 % of control
[5]
  T/C: 93 % of control
[6]
  T/C: 90 % of control

## O=C(C=C(C(F)(F)F)C(F)(F)F)c1ccccc1[N+](=O)[O-]
endpoint: mean survival time, dose: 12.5 mg/kg/injection, schedule: Q04DX003 (ip), vehicle: other
  T/C: 103 % of control
endpoint: mean survival time, dose: 25.0 mg/kg/injection, schedule: Q04DX003 (ip), vehicle: other
  T/C: 109 % of control

## C[N+]1(C)CCC(c2ccccc2)(c2ccccc2)C(=O)C1
endpoint: mean survival time, dose: 75.0 mg/kg/injection, schedule: Q01DX001 (ip), vehicle: saline
  T/C: 101 % of control
endpoint: mean survival time, dose: 150.0 mg/kg/injection, schedule: Q01DX001 (ip), vehicle: saline
  T/C: 101 % of control

## C/C(=N/O)c1ccc(F)cc1
[1]
  T/C: 100 % of control
[4]
  T/C: 94 % of control and 97 % of control
[2]
  T/C: 93 % of control and 95 % of control
[5]
  T/C: 94 % of control
[3]
  T/C: 94 % of control and 102 % of control
[6]
  T/C: 89 % of control and 96 % of control

## C[C@]12CC[C@H](OC(=O)Cc3ccc(N(CCCl)CCCl)cc3)CC1=CC[C@@H]1[C@@H]2CC[C@]2(C)C(=O)CC[C@@H]12
[7]
  T/C: 92 % of control
[1]
  T/C: 100 % of control
[8]
  T/C: 90 % of control
[2]
  T/C: 107 % of control
[9]
  T/C: 96 % of control
[3]
  T/C: 111 % of control

## COc1cc(/C=C/[N+](=O)[O-])cc(Br)c1OC
endpoint: median survival time, dose: 6.25 mg/kg/injection, schedule: Q01DX009 (ip), vehicle: saline with Tween-80
  T/C: 103 % of control
endpoint: median survival time, dose: 12.5 mg/kg/injection, schedule: Q01DX009 (ip), vehicle: saline with Tween-80
  T/C: 96 % of control
endpoint: median survival time, dose: 25.0 mg/kg/injection, schedule: Q01DX009 (ip), vehicle: saline with Tween-80
  T/C: 109 % of control

## O=C1OC2CCC13CCCCC3C2 (stereo unspecified)
[4]
  T/C: 96 % of control
[5]
  T/C: 88 % of control
[6]
  T/C: 86 % of control

## CC(O)C(=O)[O][Hg][c]1ccccc1 (stereo unspecified)
[10]
  T/C: 92 % of control

## C=CCCCCCCCCC(=O)NCc1ccccn1
[7]
  T/C: 93 % of control
[8]
  T/C: 102 % of control
[9]
  T/C: 91 % of control

## Cc1cc(N(CCOS(C)(=O)=O)CCOS(C)(=O)=O)ccc1C=Nc1ccc(-c2csc(Cc3ccccc3)n2)cc1
[11]
  T/C: 102 % of control
[12]
  T/C: 105 % of control

## CCCCCCN=C(N)NC(=O)OC
[11]
  T/C: 87 % of control
[12]
  T/C: 100 % of control
endpoint: mean survival time, dose: 25.0 mg/kg/injection, schedule: Q01DX009 (ip), vehicle: saline with Tween-80
  T/C: 100 % of control

## Nc1ccc(N)c(N)n1
endpoint: mean survival time, dose: 6.25 mg/kg/injection, schedule: Q01DX009 (ip), vehicle: saline sonified
  T/C: 105 % of control
endpoint: mean survival time, dose: 12.5 mg/kg/injection, schedule: Q01DX009 (ip), vehicle: saline sonified
  T/C: 96 % of control
endpoint: mean survival time, dose: 25.0 mg/kg/injection, schedule: Q01DX009 (ip), vehicle: saline sonified
  T/C: 108 % of control

## Nc1ccc(OCc2ccc(C(=O)Nc3cccc(S(=O)(=O)F)c3)cc2)c(Cl)c1
endpoint: mean survival time, dose: 100.0 mg/kg/injection, schedule: Q01DX009 (ip), vehicle: saline sonified
  T/C: 91 % of control
endpoint: mean survival time, dose: 200.0 mg/kg/injection, schedule: Q01DX009 (ip), vehicle: saline sonified
  T/C: 95 % of control
endpoint: mean survival time, dose: 400.0 mg/kg/injection, schedule: Q01DX009 (ip), vehicle: saline sonified
  T/C: 93 % of control

## N#Cc1nc(N)nc2c1ncn2C1OC(CO)C(O)C1O (stereo unspecified)
endpoint: median survival time, dose: 8.75 mg/kg/injection, schedule: Q01DX005 (ip), vehicle: distilled water + Tween-80
  T/C: 100 % of control
endpoint: median survival time, dose: 17.5 mg/kg/injection, schedule: Q01DX005 (ip), vehicle: distilled water + Tween-80
  T/C: 107 % of control
endpoint: median survival time, dose: 35.0 mg/kg/injection, schedule: Q01DX005 (ip), vehicle: distilled water + Tween-80
  T/C: 100 % of control
endpoint: median survival time, dose: 70.0 mg/kg/injection, schedule: Q01DX005 (ip), vehicle: distilled water + Tween-80
  T/C: 100 % of control
endpoint: median survival time, dose: 140.0 mg/kg/injection, schedule: Q01DX005 (ip), vehicle: distilled water + Tween-80
  T/C: 101 % of control

## CCCCOC(=O)c1ccccc1C(=O)O.[Cu+2]
endpoint: mean survival time, dose: 6.25 mg/kg/injection, schedule: Q01DX001 (ip), vehicle: saline with Tween-80
  T/C: 100 % of control
endpoint: mean survival time, dose: 12.5 mg/kg/injection, schedule: Q01DX001 (ip), vehicle: saline with Tween-80
  T/C: 96 % of control
endpoint: mean survival time, dose: 25.0 mg/kg/injection, schedule: Q01DX001 (ip), vehicle: saline with Tween-80
  T/C: 103 % of control

## CCOC(=O)CCC(N)C(=O)OCC (stereo unspecified)
endpoint: mean survival time, dose: 100.0 mg/kg/injection, schedule: Q01DX001 (ip), vehicle: saline
  T/C: 95 % of control
endpoint: mean survival time, dose: 200.0 mg/kg/injection, schedule: Q01DX001 (ip), vehicle: saline
  T/C: 88 % of control
endpoint: mean survival time, dose: 400.0 mg/kg/injection, schedule: Q01DX001 (ip), vehicle: saline
  T/C: 93 % of control

## COc1cccc2c1C(=O)c1c(O)c3c(c(O)c1C2=O)C[C@@](O)(C(=O)COC(=O)Cc1ccccc1)C[C@@H]3OC1CC(N)C(O)C(C)O1 (stereo partly specified)
endpoint: mean survival time, dose: 0.5 mg/kg/injection, schedule: Q01DX009 (ip), vehicle: saline with Tween-80
  T/C: 123 % of control
endpoint: mean survival time, dose: 1.32 mg/kg/injection, schedule: Q01DX009 (ip), vehicle: saline
  T/C: 118 % of control
endpoint: mean survival time, dose: 2.0 mg/kg/injection, schedule: Q01DX009 (ip), vehicle: saline
  T/C: 114 % of control
endpoint: mean survival time, dose: 3.0 mg/kg/injection, schedule: Q01DX009 (ip), vehicle: saline
  T/C: 117 % of control
endpoint: mean survival time, dose: 8.0 mg/kg/injection, schedule: Q01DX009 (ip), vehicle: saline with Tween-80
  T/C: 96 % of control
[10]
  T/C: 158 % of control
endpoint: mean survival time, dose: 20.0 mg/kg/injection, schedule: Q01DX001 (ip), vehicle: saline with Tween-80
  T/C: 107 % of control
endpoint: mean survival time, dose: 20.0 mg/kg/injection, schedule: Q04DX003 (ip), vehicle: saline with Tween-80
  T/C: 102 % of control

## COC(=O)C(Br)c1ccccc1 (stereo unspecified)
[7]
  T/C: 108 % of control
[8]
  T/C: 91 % of control
[9]
  T/C: 97 % of control

## O=C(O)CO.[NH2-].[NH2-].[Pt+2]
endpoint: median survival time, dose: 20.0 mg/kg/injection, schedule: Q04DX003 (ip), vehicle: saline
  T/C: 192 % of control and 238 % of control
endpoint: median survival time, dose: 40.0 mg/kg/injection, schedule: Q04DX003 (ip), vehicle: saline
  T/C: 182 % of control and 340 % of control
endpoint: median survival time, dose: 80.0 mg/kg/injection, schedule: Q04DX003 (ip), vehicle: saline
  T/C: 98 % of control and 102 % of control

## C#CC1(OC(=O)c2ccccc2)CCCCC1
[4]
  T/C: 98 % of control
[5]
  T/C: 96 % of control
[6]
  T/C: 102 % of control

## CC(C)c1cc(O)ccc1N(C)C (tested in a mixture with another compound)
endpoint: mean survival time, dose: 32.0 micrograms/kg/injection, schedule: Q04DX003 (ip), vehicle: saline
  T/C: 102 % of control
endpoint: mean survival time, dose: 63.0 micrograms/kg/injection, schedule: Q01DX001 (ip), vehicle: saline
  T/C: 98 % of control
endpoint: mean survival time, dose: 63.0 micrograms/kg/injection, schedule: Q04DX003 (ip), vehicle: saline
  T/C: 101 % of control
endpoint: mean survival time, dose: 125.0 micrograms/kg/injection, schedule: Q01DX001 (ip), vehicle: saline
  T/C: 98 % of control
endpoint: mean survival time, dose: 125.0 micrograms/kg/injection, schedule: Q04DX003 (ip), vehicle: saline
  T/C: 90 % of control

## CSc1nc(NC2OCC(O)C(O)C2O)c(I)c(=O)n1C (stereo unspecified)
endpoint: median survival time, dose: 12.5 mg/kg/injection, schedule: Q01DX005 (ip), vehicle: saline with Tween-80
  T/C: 103 % of control
endpoint: median survival time, dose: 25.0 mg/kg/injection, schedule: Q01DX005 (ip), vehicle: saline with Tween-80
  T/C: 101 % of control
endpoint: median survival time, dose: 50.0 mg/kg/injection, schedule: Q01DX005 (ip), vehicle: saline with Tween-80
  T/C: 101 % of control
endpoint: median survival time, dose: 100.0 mg/kg/injection, schedule: Q01DX005 (ip), vehicle: saline with Tween-80
  T/C: 100 % of control
endpoint: median survival time, dose: 200.0 mg/kg/injection, schedule: Q01DX005 (ip), vehicle: saline with Tween-80
  T/C: 100 % of control

## C=C(C)C1CCC2=CCCC(C)C2(C)C1 (stereo unspecified)
endpoint: mean survival time, dose: 50.0 mg/kg/injection, schedule: Q01DX009 (ip), vehicle: saline
  T/C: 98 % of control
endpoint: mean survival time, dose: 100.0 mg/kg/injection, schedule: Q01DX009 (ip), vehicle: saline
  T/C: 104 % of control
endpoint: mean survival time, dose: 200.0 mg/kg/injection, schedule: Q01DX009 (ip), vehicle: saline
  T/C: 90 % of control
